In patent US20090215732A1, “COMBINATION OF COMPOUNDS, WHICH CAN BE USED IN THE TREATMENT OF RESPIRATORY DISEASES, ESPECIALLY CHRONIC OBSTRUCTIVE PULMONARY DISEASE (COPD) AND ASTHMA” (priority 2005, published 2009):

Assay: Estimated solubility of the salt in organic solvents
Format: physicochemical
Experimental: (b) The Form B salt described in (a) above was also prepared by dissolving, in a vial, 20% w of a sample of the benzoate salt prepared by the method of Example 1(b) (Form A) in a solvent such as methanol (>20 mg/ml), ethanol (>20 mg/ml), n-propanol (>20 mg/ml), isopropanol (8.5 mg/ml) or acetone (9.6 mg/ml). The figures in brackets indicate the estimated solubility of the salt in these solvents. The vial was then sealed and the suspension was homogenised at ambient temperature (20° C.) using a magnet. Stirring and temperature were maintained for a period of at least 7 days after which time a sample of the material obtained was dried and tested by XRPD. XRPD confirmed that there had been complete transformation of Form A to Form B.
(a) Form B was prepared by dissolving, in a vial, 20% w of a sample of the furoate salt prepared by the method of Example 1(b) (Form A) in a solvent such as ethanol (16 mg/ml) or 2-butanol (8 mg/ml). The figures in brackets indicate the estimated solubility of the salt in these solvents. The vial was then sealed and the suspension was homogenised at ambient temperature (20° C.) using a magnet. Stirring and temperature were maintained for a period of at least 7 days after which time a sample of the material obtained was dried and tested by XRPD. XRPD confirmed that there had been complete transformation of Form A to Form B.

| estimated solubility of the salt (solvent 2-butanol) [mg/mL] | estimated solubility of the salt (solvent ethanol) [mg/mL] | estimated solubility of the salt (solvent acetone) [mg/mL] | estimated solubility of the salt (solvent isopropanol) [mg/mL] | estimated solubility of the salt (solvent methanol) [mg/mL] | estimated solubility of the salt (solvent n-propanol) [mg/mL] | SMILES |
| --- | --- | --- | --- | --- | --- | --- |
| 8 | 16 | – | – | – | – | CC(=O)Nc1ccc(O)cc1OC[C@@](C)(O)CNC1CCN(Cc2ccc(Cl)cc2)CC1.O=C(O)c1ccco1 [Example 1(c), N-{2-[((2S)-3-{[1-(4-chlorobenzyl)piperidin-4-yl]amino}-2-hydroxy-2-methylpropyl)oxy]-4-hydroxyphenyl}acetamide furoate (1:1 salt), Form A] |
| – | > 20 | 9.6 | 8.5 | > 20 | > 20 | CC(=O)Nc1ccc(O)cc1OC[C@@](C)(O)CNC1CCN(Cc2ccc(Cl)cc2)CC1.O=C(O)c1ccccc1 [Example 1(b), N-{2-[((2S)-3-{[1-(4-chlorobenzyl)piperidin-4-yl]amino}-2-hydroxy-2-methylpropyl)oxy]-4-hydroxyphenyl}acetamide benzoate (1:1 salt), Form A] |
